The values below come from patent publication US9663502B2, “2-Acylamidomethyl and sulfonylamidomethyl benzoxazine carbamates for inhibition of RORgamma activity and the treatment of disease” (Merck Sharp & Dohme Corp., priority 2013, dated 2017).

SMILES strings stand for the structures. pIC50: −log10 of the molar value.

In the assay the target is human RORgammaT-Ligand Binding Domain (LBD) (Homo sapiens (Human), UniProt P51449). Description: RORγ-Ligand Binding Domain TR-FRET Assay (co-activator peptide SRC1_2 recruitment). The format is biochemical.
human RORgammaT-Ligand Binding Domain (LBD), sequence (P51449 269-508): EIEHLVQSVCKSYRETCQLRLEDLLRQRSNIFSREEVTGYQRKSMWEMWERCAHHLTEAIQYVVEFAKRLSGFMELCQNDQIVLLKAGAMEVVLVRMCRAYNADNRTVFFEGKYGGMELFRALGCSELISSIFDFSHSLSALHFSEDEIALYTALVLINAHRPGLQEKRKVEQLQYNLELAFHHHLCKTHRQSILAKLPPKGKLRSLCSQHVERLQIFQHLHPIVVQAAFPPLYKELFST

In turn, `CC(=O)NC[C@H]1CN(S(=O)(=O)c2ccc(F)cc2)c2cc(NC(=O)OC(C3CCCCC3)C(F)(F)F)ccc2O1` (stereo partly drawn) [Example 23D, 1-cyclohexyl-2,2,2-trifluoroethyl ((S)-2-(acetamidomethyl)-4-((4-fluorophenyl)sulfonyl)-3,4-dihydro-2H-benzo[b][1,4]oxazin-6-yl)carbamate] had a pIC50 of 6.95.
